Data as given in patent US20220064238A1, “Methods And Compositions For Modifying Transcription Factor Activity by Targeting The Human Mediator Complex Using Cell Penetrating Memetic Peptides And Methods of Treating Cancer Using The Same” (The Regents of the University of Colorado, a body corporate, priority 2020, published 2022).
Bridge positions count the residues as written; N and C are the ends. Square brackets hold non-standard residues; d marks the D form. Peptide text beside a SMILES is read from it. PEG6 = NCCOCCOCCOCCOCCOCCOCCC(=O)O; R8 = C=CCCCCCC[C@@](C)(N)C(=O)O; S5 = C=CCCC[C@](C)(N)C(=O)O

Assays:
VP16-Mediator binding = target: T1, VP16-Mediator binding (Homo sapiens, UniProt Q71SY5+Q9NVC6); experiment: In vitro binding assay, VP16AD-Mediator; settings: bivalent peptide 5 μM
T1 construct: endogenous in cells

[1] = system: pol II occupancy at the p21 locus; experiment: ChIP of RNA polymerase II occupancy at CDKN1A (p21); format: cell-based; settings: 3 h post-Nutlin, Ser5-phosphorylated pol II ChIP
Source text: FIGS. 13A-B. Summary of ChIP experiments, showing that RNA polymerase II occupancy at the p53 target gene CDKN1A (p21) is reduced in cells treated with the bivalent peptide (peptide). A) Time course following Nutlin induction, to determine ideal time point to probe pol II occupancy at the p21 locus. […] However, pol II occupancy is reduced in cells treated with the bivalent peptide. […] Pol II phosphorylated at serine-5 of its C-terminal domain was used for ChIP analysis, because this is a proxy for initiating pol II at gene promoters (start sites). Data represent biological triplicates. Similar results were observed genome-wide, using ChIP-seq, although the timing of induction across p53 target genes will vary (data not shown).

SJSA cells = experiment: SJSA cell death after Nutlin treatment (CellTiter-Glo); format: cell-based; settings: 24-hour Nutlin 10 μM
Method: Experimental time frame for RNA-Seq experiments: In a series of experiments in SJSA cells, we initially tested whether the bivalent peptide could cause a phenotypic change. […] We next determined that a 6-hour Nutlin treatment time was the shortest that would still trigger significant SJSA cell death within 24-48 hours. However, we obtained similar results with 6-hour (or 12-hour) Nutlin treatment times (±bivalent peptide). We then tested the prospect of RNA-Seq experiments, in hopes that gene expression changes and shorter time frames would allow an assessment of bivalent peptide effects. Here, we used HCT116 cells, which show strong transcriptional response to Nutlin (Allen et al., 2014). For RNA-Seq experiments, we needed a time frame long enough to allow accumulation of p53 target gene mRNAs but short enough to enable maximum activity of the bivalent peptide (e.g. prior to its secretion, export, and/or degradation). Using RT-qPCR assays, we confirmed that a 3-hour Nutlin treatment was a minimum amount of time to reliably detect induction of p53 target genes. […] RNA-Seq data have been uploaded on GEO: GSE135870.

[2] = system: p53 target genes in HCT116 cells; experiment: RNA-Seq / GSEA in HCT116 cells, p53 pathway genes; format: cell-based, human
Method: To circumvent this issue, we used a well-tested electroporation protocol to enhance cell uptake of the bivalent peptide (see Methods). HCT116 cells were evaluated either in the presence of bivalent peptide or vehicle (water), with or without Nutlin-3a (FIG. 3A, B). Nutlin-3a is a small molecule that activates and stabilizes p53 by inhibiting MDM2, a repressor of p53. […] After 3 h Nutlin-3a treatment (or DMSO control, ±bivalent peptide), nuclear RNA was isolated and biological replicate RNA-Seq libraries were prepared (FIG. 9A; Table 1).
A confounding issue with these experiments was that cellular uptake of the bivalent peptide could not be accurately measured and could potentially vary from experiment-to-experiment. To assess this possibility more thoroughly, we completed an additional round of RNA-Seq experiments in control vs. Nutlin-treated HCT116 cells (FIG. 9B; Table 1). These additional experiments (RNA-Seq experiment 2) were completed with a slightly modified protocol that included treatment in serum-free media as an effort to enhance peptide uptake. Importantly, the data from RNA-Seq experiment 2 (biological triplicate; FIG. 10) were consistent with the first series of biological replicates (RNA-Seq experiment 1; FIG. 3C-E) and in each case, repression of p53-dependent transcription by the bivalent peptide tracked with Nutlin induction levels (FIG. 9CE). Nutlin-induced activation of p53 target genes was inhibited in the presence of the bivalent peptide, providing further evidence that the bivalent peptide blocks p53 response in cells. However, the scope and magnitude of the effect was reduced in this second, independent set of RNA-Seq experiments (e.g. compare FIG. 3C, D & FIG. 10C, D). This broadly consistent but variable magnitude effect can also be seen from RNA-Seq reads at specific p53 target genes (RNA-Seq experiment 1, FIG. 4A, B; RNA-Seq experiment 2, FIG. 4C, D). The overall p53 response to Nutlin-3a was reduced in RNA Seq experiment 2 (GSEA p53 pathway NES=2.76 in RNA-Seq experiment 1 vs. NES=1.59 in RNASeq experiment 2), which therefore reduced the transcriptional impact of the bivalent peptide. However, we cannot rule out variable cellular uptake of the bivalent peptide as a contributing factor.
Electroporation of bivalent peptide into HCT116 cells (RNA-Seq experiment 1): Two 6-well plates (HCT116 cells) were grown to about 80% confluency. Cells were then trypsinized, washed with PBS, and resuspended in 150 μL Neon Buffer R. The cells were then split into two groups: No peptide and 10 μM peptide. The cells were then drawn into a 10 μL Neon pipet tip, electroporated and ejected into 2 mL of McCoy's 5A media without antibiotic. For each experiment, two cell electroporation aliquots were added to media containing either 0.1% DMSO (control) or 10 μM Nutlin-3a (in DMSO, to a final concentration of 0.1%). For wells containing cells electroporated with peptide, an additional 200 nM peptide was added to the well to allow for peptide uptake during the experiment. The 6-well plate was then placed back at 37° C. for 3 hours. After 3 hours, cells were scraped from the plates, transferred to a 15 mL conical vial, pelleted at 1,000×g, and washed in 10 mL phosphate buffered saline (PBS) solution. To isolate the nuclei, cells were resuspended in 10 mL lysis buffer (10 mM Tris-HCl, pH 7.4, 2 mM MgCl2, 3 mM CaCl2), 0.5% NP-40, 10% glycerol) and thoroughly mixed. The nuclei were spun down at 1,000×g for 10 minutes, the lysis buffer was removed, and 1 mL of TRIzol was added. The nuclear RNA was isolated as described in the TRIzol instructions, except an additional phenol/chloroform extraction and chloroform-only extraction were performed to reduce contaminants. RNA was precipitated and washed twice with 75% ethanol to further remove contaminants. The RNA was then converted to cDNA using the High Capacity cDNA kit from Thermo Fisher Scientific. […]

Question: How did the “effect on VP16AD binding to Mediator” value (VP16-Mediator binding) turn out when `CC[C@H](C)[C@H](NC(=O)[C@H](CC(=O)O)NC(=O)[C@H](CC(=O)O)NC(=O)[C@@H]1CCCN1C(=O)[C@H](CO)NC(=O)[C@H](CC(C)C)NC(=O)CCOCCOCCOCCOCCOCCOCCNC(=O)[C@H](CCCNC(=N)N)NC(=O)[C@H](CCCNC(=N)N)NC(=O)[C@]1(C)CCCC=CCCCCCC[C@@](C)(NC(=O)[C@H](Cc2ccccc2)NC(=O)[C@H](CCCNC(=N)N)NC(=O)[C@H](CCC(=O)O)NC(=O)[C@H](CCC(N)=O)NC(=O)[C@H](CO)NC(=O)[C@H](CCCNC(=N)N)NC(C)=O)C(=O)N[C@@H](CC(=O)O)C(=O)N[C@@H](CC(C)C)C(=O)N[C@@H](Cc2c[nH]c3ccccc23)C(=O)N[C@@H](CCCCN)C(=O)N[C@@H](CCCNC(=N)N)C(=O)N[C@@H](CC(C)C)C(=O)N1)C(=O)N[C@@H](CCC(=O)O)C(=O)N[C@@H](CCC(N)=O)C(=O)N[C@@H](Cc1c[nH]c2ccccc12)C(=O)N[C@@H](Cc1ccccc1)C(=O)N[C@H](C(=O)N[C@@H](CCC(=O)O)C(=O)N[C@@H](CC(=O)O)C(N)=O)[C@@H](C)O` [bivalent peptide] (Ac-RSQERF[R8]DLWKRL[S5]RR[PEG6]LSPDDIEQWFTED-NH2; staple 7-14; N-terminus assumed) was run?
Answer: did not reduce VP16AD binding to Mediator

Question: What about the “increase in Mediator-bound VP16 in +peptide experiments (GST-VP16 normalized to MED15)” value (VP16-Mediator binding; n=2) of the same compound?
Answer: 1.67 fold

Question: And the “pol II occupancy at the p21 locus in peptide-treated cells” value [1]?
Answer: reduced

Question: What about the “effect on cell death after Nutlin treatment” value (SJSA cells) of the same compound?
Answer: no significant effect

Question: What about the “GSEA p53 pathway NES, Nutlin response in peptide-treated cells” value ([2]; RNA-Seq experiment 1, +Nutlin) of the same compound?
Answer: 1.97

Question: And the “GSEA p53 pathway NES, Nutlin response in peptide-treated cells” value ([2]; RNA-Seq experiment 2, +Nutlin)?
Answer: 0.92

Question: What about the “Nutlin-induced activation of p53 target genes in peptide-treated cells” value ([2]; electroporated 10 μM peptide, Nutlin-3a 10 μM, 3 h, HCT116) of the same compound?
Answer: diminished

Question: And the “p53 activation by peptide alone” value ([2]; no Nutlin, vs. untreated controls, HCT116)?
Answer: modest p53 activation
